Columns and labels:
[1] = test system: Penicillium digitatum (Pd); assay: Antifungal activity of vapor against Penicillium digitatum (Pd) in wounded, infected mandarins; format: in vivo; conditions: after 6 days
[2] = test system: Colletotrichum gloeosporioides (Cg); assay: Antifungal activity against Colletotrichum gloeosporioides (Cg) in wounded, infected avocados; format: in vivo; conditions: Example 9; avocados; vapor of 3 mL, 72 hour exposure
Method: Example 7. The antifungal activity of AITC and DADS vapor against Colletotrichum gloeosporioides (Cg) was tested in avocados. All test pieces were wounded by removing the stem and infected by dispensing 1000 Cg spores suspended in 10 μL of water into the wound. The test groups consisted of avocados that were: untreated and uninfected; untreated and infected; treated by dipping in a solution of 0.1 g/L of prochloraz; exposed to the vapor of 3 mL of AITC disposed in a Petri dish; and exposed to the vapor of 3 mL of DADS disposed in a Petri dish. FIG. 9 quantifies the infection results. AITC vapor reduced the incidence of Cg mold by 97% compared to the untreated test group and 70% compared to the prochloraz treated test group. DADS vapor reduced the incidence of Cg mold by 60% compared to the untreated test group.
Example 8. The antifungal activity of a range of DADS vapor exposure times was tested against Cg in avocados. All test pieces were wounded by removing the stem and infected by dispensing 1000 Cg spores suspended in 10 μL of water into the wound. The test groups consisted of avocados that were: infected and untreated; and exposed to the vapor of 3 mL of DADS in a Petri dish for 24 hours, 48 hours, and 72 hours. FIG. 10 quantifies the infection results. Test group exposed to DADS vapor at all exposure times reduced the incidence of Cg mold compared to the untreated test group. A 24 hour DADS exposure reduced the incidence of Cg mold by 8%. A 48 hour DADS exposure reduced the incidence of Cg mold by 25%. A 72 hour DADS exposure reduced the incidence of Cg mold by 57%.
(§1) Example 9. The antifungal activity of a range of AITC and carvacrol vapor exposure times was tested against Cg in avocados. To measure the effect of the various treatments on ripening, durometer shore was taken after 7 days of incubation at ambient temperature and high humidity. All samples were wounded by removing the stem and infected by dispensing 1000 Cg spores suspended in 10 μL of water in the wound. The test groups consisted of avocados that were: infected and left untreated on the benchtop; infected and left untreated under a fume hood; exposed to the vapor of 3 mL of AITC in a Petri dish for 24 hours, 48 hours, and 72 hours; and exposed to the vapor of 3 mL of carvacrol in a Petri dish for 72 hours. FIG. 11 quantifies the infection results. […] All exposure times to AITC vapor reduced the incidence of Cg mold compared to the untreated samples. A 24 hour AITC exposure reduced the incidence of Cg mold by 90%. A 48 hour AITC exposure reduced the incidence of Cg mold by 97%. A 72 hour AITC exposure reduced the incidence of Cg mold by 83%.
(§2) Example 10. The antifungal activity of a range of AITC vapor exposure times were tested against Cg in avocados. To measure the effect of the various treatments on ripening, durometer shore was taken after 6 days of incubation at ambient temperature and high humidity. All samples were wounded by removing the stem and infected by dispensing 1000 Cg spores suspended in 10 μL of water in each wound. The test groups consisted of avocados that were: infected and left untreated on the benchtop; infected and left untreated in a fume hood; exposed to the vapor of 3 mL of AITC in a Petri dish for 24 hours, 48 hours, and 72 hours. FIG. 13 quantifies the infection results. […] All exposure times to AITC vapor reduced the incidence of Cg mold compared to the untreated samples.
Example 21. The antifungal activity of avocados exposed to AITC vapor and prochloraz was tested against Cg in avocados. To measure the effect of the various treatments on ripening, durometer shore was taken after 5 days of incubation at ambient temperature (about 20° C. to about 25° C.) and high humidity (about 88% relative humidity to about 93% relative humidity). All samples were wounded by removing the stem and infected by dispensing 1000 Cg spores suspended in 10 μL of water in the wound. […]

avocados = assay: Durometer shore (firmness, ripening) of treated avocados; format: in vivo, avocado; conditions: Example 21; Cg-infected avocados; AITC 125 μL 30 minutes; prochloraz 0.1 g/L dip; after 5 days
Method: as §1, §2
Example 21. The antifungal activity of avocados exposed to AITC vapor and prochloraz was tested against Cg in avocados. To measure the effect of the various treatments on ripening, durometer shore was taken after 5 days of incubation at ambient temperature (about 20° C. to about 25° C.) and high humidity (about 88% relative humidity to about 93% relative humidity). All samples were wounded by removing the stem and infected by dispensing 1000 Cg spores suspended in 10 μL of water in the wound. Exposure to vapor was done by placing the avocados in an airtight container, dispensing AITC onto Whatman filter paper discs, suspending the discs in front of a battery-powered fan, closing the container and incubating the avocados for 30 minutes. After vapor exposure, the avocados were left at ambient temperature, high humidity, and assessed for Cg mold on day 5. Treatment groups consisted of avocados that were: exposed for 30 minutes to the vapor of 125 μL of AITC disposed on a filter paper disc; dipped in a solution of 0.1 g/L of prochloraz and placed to dry on a rack in front of a fan for 30 min; infected and left untreated; and uninfected and untreated. […] To prepare the 0.1 g/L of prochloraz, 10 mg of prochloraz was mixed with 10 mL of ethanol and 90 mL of water. […] A 24 hour AITC exposure reduced the incidence of Cg mold by 90%. […] The mean shore value for the untreated avocados was 28.8 (standard deviation (SD)=10.8). The mean shore value for the infected avocados was 47.3 (SD=11.8). The mean shore value of the positive control, prochloraz treated avocados was 44.3 (SD=14.7). The mean shore value of the AITC treated avocados was 61.1 (SD=10.5).
Durometer Shore Measurement: A Fruit Hardness Tester— HPE III Fff w/Sphere Ø 5.0 mm Test Anvil is used for the measurements. The Operating Procedure is as follows: • 1) At room temperature and 1 atm pressure, switch on the measuring device and press the hull or sleeve against the specimen so that the contact surface of the pressure plate rests on the fruit. […]

Structure (SMILES): C=CCc1ccc(O)c(OC)c1 [eugenol]
- performance against Pd versus the untreated samples ([1]; Example 19, mandarins, 62.5 μL AITC and/or 125 μL of all other compounds, 30 minutes): performed better than the untreated samples

Structure (SMILES): C=CCOC(Cn1ccnc1)c1ccc(Cl)cc1Cl (stereo not shown) [imazalil, reference compound]
- infected mandarins ([1]; Example 6, treated with 1 g/L, fruit of poor quality with latent infection): 83.3%

Structure (SMILES): Cc1ccc(C(C)C)cc1O [carvacrol]
- reduction of the incidence of Cg mold [2]: did not reduce the incidence of Cg mold

Structure (SMILES): CCCN(CCOc1c(Cl)cc(Cl)cc1Cl)C(=O)n1ccnc1 [prochloraz, reference compound]
- mean shore value (avocados): 44.3 (SD=14.7)

— US20230292776A1, “GAS PHASE TREATMENT OF PRODUCE” (priority 2022, published 2023)
